Data on six molecules can be found in PMC8918352, “Structure and activity of the DHNA Coenzyme-A Thioesterase from Staphylococcus aureus providing insights for innovative drug development” (Scientific Reports, 2022).

Test [1] has as its system SaDHNA WT (DHNA Coenzyme-A thioesterase). Description: Thioesterase activity of SaDHNA wild type (DTNB/TNB, 412 nm). The format is biochemical, Staphylococcus aureus. As for the experimental part:
(§1) To obtain some initial information about SaDHNA thioesterase substrate specificity, two different substrates classified according to their CoA chain length and unsaturation degree were assessed. The longest acyl-CoA chain substrate contained eighteen acyl saturated chain stearoyl-CoA (C18:0), while the shortest chain contained four acyl chain crotonyl-CoA with one unsaturation (C4:1). Thioesterase activity was observed by the increase in free thiol-CoA thioester hydrolysis formation of the 2-nitro-5-thiobenzoate anion (TNB^2−), resulting from the reaction of the thiolate anion (RS^−) with Ellman’s reagent (DTNB^2−) and one mixed disulphide (R-S-TNB^−). […]
(§2) The thioesterase activity of SaDHNA was measured according to a protocol of Rodríguez-Guilbe and co-workers[36]. In a ELISA microplate the formation of 2-nitro-5-thiobenzoate anion (TNB2-) by the reaction of thiolate anion (RS^−) with Ellman′s reagent (DTNB^2−) and one mixed disulphide (R-S-TNB^−) catalysed by purified SaDHNA wild type (WT), D16A and E31N was followed by monitoring the change in absorbance of thionitrobenzoic acid (TNB) at 412 nm (extinction coefficient of 13.600 M^−1 cm^−1) using a TECAN GENios plate reader (XFLUOR4 Version: V 4.40, MTX Lab Systems, Inc, USA). […] In addition, uncatalyzed reaction rates were monitored by the combination of same reagents without the enzyme. […]

In the next test the test system is SaDHNA D16A. Description: Thioesterase activity of SaDHNA D16A mutant (DTNB/TNB, 412 nm). The format is biochemical, Staphylococcus aureus. Here is the method:
as §1, §2

The next test concerns SaDHNA E31N. Description: Thioesterase activity of SaDHNA E31N mutant (DTNB/TNB, 412 nm). The format is biochemical, Staphylococcus aureus. The note with it: stearoyl-CoA as substrate, vs background level. As for the experimental part: as §1, §2
The test system of the next test is HpYbgC. The note with it: in contrast to EcYbgC and HiYbgC; ref [38]; cited from earlier work. An excerpt: In fact, we observed the presence of a long tunnel associated with the binding site of the acyl moiety of the substrate for HpYbgC, which is ...
Test [2] has as its target 1,4-dihydroxy-2-naphthoyl coenzyme A thioesterase from S. aureus (S. aureus). Description: DLS + SAXS; SaDHNA at 0.8 to 2.5 mg/ml in 100 mM sodium phosphate buffer pH 6.0, 150 mM NaCl, 10 °C; ab initio model with GASBOR.
The target is the same in test [3]. Description: crystal structure; space group P2_(1), four molecules in the asymmetric unit; crystals from 100 mM HEPES-Na+ pH 7.0, 1.0 M lithium sulphate, 293 K; 1.3 Å.
The test system of the next test is SaDHNA thioesterase. Description: Inhibition of SaDHNA thioesterase activity by peptides. It counts as biochemical, Staphylococcus aureus. The note with it: 100 µM peptide, 10 µM SaDHNA, 50 mM HEPES-K+ pH 7.5, 1 mM DTNB, room temperature, 412 nm; in comparison to control assay without peptides; triplicates. An excerpt:
According to the docking analysis, the protein-peptide complex is mediated mainly through six hydrogen bonds formed between Pep-1 and residues present in the putative active site. The benzoyl ring of the tyrosine of Pep-1 has non-covalent π-stacking interactions with the Try45 benzoyl ring of the SaDHNA structure, as well as with the side chain of Ser55 through a hydrogen bond. The residues important for the substrate binding and activity, Glu31 and Asp16, respectively, are predicted to interact with the amide of the peptide backbone and with the side chain of serine of the peptide via hydrogen bonds as well. […]
The thioesterase activity of SaDHNA was measured according to a protocol of Rodríguez-Guilbe and co-workers[36]. In a ELISA microplate the formation of 2-nitro-5-thiobenzoate anion (TNB2-) by the reaction of thiolate anion (RS^−) with Ellman′s reagent (DTNB^2−) and one mixed disulphide (R-S-TNB^−) catalysed by purified SaDHNA wild type (WT), D16A and E31N was followed by monitoring the change in absorbance of thionitrobenzoic acid (TNB) at 412 nm (extinction coefficient of 13.600 M^−1 cm^−1) using a TECAN GENios plate reader (XFLUOR4 Version: V 4.40, MTX Lab Systems, Inc, USA). […] In addition, uncatalyzed reaction rates were monitored by the combination of same reagents without the enzyme.

The test system of another test is SaDHNA. Description: Intrinsic (tryptophan) fluorescence quenching of SaDHNA by peptides, Stern–Volmer analysis. The conditions noted are these: for bimolecular quenching constant (Kq) / shift of SaDHNA emission spectra maximum / fluorescence intensity of SaDHNA: 60 nM SaDHNA; for bimolecular quenching constant (Kq): 100 mM sodium phosphate pH 6.0, 150 mM NaCl, 22 °C, excitation 290 nm, emission 300–420 nm, peptide 60–1000 nM, from second, slower quenching step, five assays; for shift of SaDHNA emission spectra maximum / fluorescence intensity of SaDHNA: peptide up to 1000 nM, pH 6.0, 22 °C; for shift of SaDHNA emission spectra maximum: maximum emission near 340 nm; for quenching mechanism: from Kq above diffusive limit, complex association between SaDHNA and peptides. It counts as binding, Staphylococcus aureus. As for the experimental part:
Fluorescence spectroscopy was employed to analyse the inhibition of SaDHNA by the aforementioned peptides. The intrinsic fluorescence quenching was assessed for a gradient concentration of Pep-1 and Pep-2. The emission spectra of SaDHNA in buffer only and SaDHNA quenched with different concentrations of Pep-1 and Pep-2 are shown in Fig. 5a,b, respectively. The amino acid sequence of SaDHNA has three tryptophan residues, W29, W79 and W129 and a corresponding maximum emission near 340 nm. […] According to the quenching theory this may indicate a decrease in the lifetime of the excited state, corresponding to an additional rate process that depopulates the excited state and/or the formation of a non-radioactive ground state between the fluorophore and the quencher resulting in a non-fluorescence emission[25],[26].
The Stern–Volmer theory explains the relationship between fluorescence intensity and the presence of a quencher. The data obtained with different concentrations of peptides were analysed independently of the quenching process. Thereby the bimolecular quenching constant (Kq) assigned to the efficiency of quenching and the binding or affinity constant (Ka) for the associated complex were calculated[27],[28]. […] To investigate the quenching process and to estimate Kq and Ka the data from the second and slower step were considered (Fig. 6b,c, respectively). To estimate the bimolecular quenching constant (Kq), the Stern–Volmer quenching constant (Ksv) was determined from the slopes of Io/I versus Q (quencher concentration) (Fig. 6b) and […], which corresponds approximately to the lifetime of a biomolecule fluorophore in the absence of a quenching agent. Therefore, Kq [M^−1 s^−1] for Pep-1 and Pep-2 were 13.3 × 10^12 ± 0.6 × 10^12 and 9.3 × 10^12 ± 1.8 × 10^12, respectively. According to the diffusion controlled quenching theory Kq values close to 1 × 10 ^10 M^−1 s^−1 are associated with a process involving dynamic quenchers, whereas values of Kq larger than the diffusive limit indicate binding interactions between the fluorophore and the quencher.
As the estimated Kq presented higher values than expected for dynamic quenching, we analysed the data applying static quenching theory to estimate the affinity constant Ka for the associated complex. The intercept of log ((Io-I)/I) versus log Q plot (Fig. 6c) is equal to the logarithm of Ka.. Thereby the intercept antilog calculation determines the Ka values for both peptides.
Fluorescence measurements were performed using a Cary eclipse fluorescence spectrophotometer coupled with a peltier temperature control (Agilent, USA). All assays were carried out in 1 mL cuvettes at 22 °C with excitation/emission slits at 20 nm each. The applied excitation wavelength was 290 nm and emission spectra were collected in the range of 300 up to 420 nm in increments of 1 nm. SaDHNA quenching experiments were performed with two peptides (Pep-1: YGSDGR and Pep-2: EGEYE, using a concentration range from 60 up to 1000 nM. SaDHNA at a concentration of 60 nM in 100 mM sodium phosphate buffer pH 6.0, 150 mM NaCl was applied and small volumes of the stock peptide solution were sequentially added to the cuvette for quenching analysis. Each SaDHNA-peptide assay was performed five times. As a control the fluorescence of all buffer and all peptide solutions were measured to correct the observed fluorescence accordingly. The quenching process was assessed by the Stern–Volmer theory.

Test [4] concerns the target 1,4-dihydroxy-2-naphthoyl coenzyme A thioesterase from S. aureus (S. aureus). Description: other fluorescence titration; quenching of the intrinsic tryptophan fluorescence of 60 nM SaDHNA by peptide added from 60 up to 1000 nM; 100 mM sodium phosphate buffer pH 6.0, 150 mM NaCl, 22 °C; excitation 290 nm; Stern-Volmer and static quenching analysis of the second, slower quenching step.

For the molecule `CCCCCCCCCCCCCCCCCC(=O)SCCNC(=O)CCNC(=O)[C@H](O)C(C)(C)COP(=O)(O)OP(=O)(O)OC[C@H]1O[C@@H](n2cnc3c(N)ncnc32)[C@H](O)[C@@H]1OP(=O)(O)O` [Stearoyl-CoA (C18:0), stearoyl-CoA], the “higher specific activity toward the extended acyl CoA chain in comparison to the short chain crotonyl-CoA” value in test [1] (stearoyl-CoA vs crotonyl-CoA) is on record as 474 fold. Also, the “Enzymatic activity (specific activity)” value with SaDHNA D16A (D16A mutant, 10 μM enzyme, 50 mM HEPES-K+ pH 7.5, 1 mM DTNB, room temperature, 412 nm, 100 μM stearoyl-CoA, triplicates) was determined as 0.43 ± 0.02 nmol TNB/min/mg protein. The “decrease of hydrolysis rate of stearoyl-CoA by the D16A mutant” value in the test on SaDHNA D16A (D16A vs WT, stearoyl-CoA as substrate) turned out to be 300 fold. Besides, the “activity of E31N mutant toward stearoyl-CoA (in words)” value with SaDHNA E31N is listed as “no activity was detected above the background level”. In the test on HpYbgC, the “activity of HpYbgC towards long acyl chains” value was “more active”.

By stoichiometry N is commonly meant a count of units in the complex or per binding partner. “1,4-dihydroxy-2-naphthoyl coenzyme A thioesterase from S. aureus”: the stoichiometry N in test [2] and in test [3] was 4 throughout.

With EGEYE [Pep-2], the “SaDHNA thioesterase activity in presence of peptide (in words)” value in the test with SaDHNA thioesterase was “no detectable activity”. Moreover, in the test with SaDHNA, the “bimolecular quenching constant (Kq)” value was found to be 9.3e+12 ± 1.8e+12 M⁻¹ s⁻¹, the “shift of SaDHNA emission spectra maximum” value was “slight blue shift of the emission”, the “fluorescence intensity of SaDHNA” value is given as “decrease in the fluorescence intensity” and the quenching mechanism entry was “static mechanism”.

Turning to `C/C=C/C(=O)SCCNC(=O)CCNC(=O)[C@H](O)C(C)(C)COP(=O)(O)OP(=O)(O)OC[C@H]1O[C@@H](n2cnc3c(N)ncnc32)[C@H](O)[C@@H]1OP(=O)(O)O` [Crotonyl-CoA (C4:1), crotonyl-CoA], in test [1] (10 μM enzyme, 50 mM HEPES-K+ pH 7.5, 1 mM DTNB, room temperature, 200 μl, absorbance 412 nm, 100 μM stearoyl-CoA or 1 mM crotonyl-CoA as substrate, triplicates), the “Enzymatic activity (specific activity)” value stood at 0.27 ± 0.002 nmol TNB/min/mg protein.

Regarding YGSDGR [Pep-1], the “SaDHNA thioesterase activity in presence of peptide (in words)” value with SaDHNA thioesterase is “no detectable activity”. In the test on SaDHNA, the “bimolecular quenching constant (Kq)” value came to 1.33e+13 ± 6e+11 M⁻¹ s⁻¹, the “shift of SaDHNA emission spectra maximum” value is recorded as “did not shift the emission spectra maximum”, the “fluorescence intensity of SaDHNA” value is on record as “decrease in the fluorescence intensity” and the quenching mechanism result was “static mechanism”. Besides, the “higher binding affinity to SaDHNA than Pep-2” value in the test on SaDHNA (ratio of Ka, Pep-1 vs Pep-2) is 21 fold.

Turning to EGEYE [Pep-2], the Kq (bimolecular quenching constant) in test [4] stood at 9.3e+12 M⁻¹ s⁻¹.
